Legend:
P. aeruginosa (PA01) = assay: Checkerboard potentiation assay with novobiocin; format: cell-based
[1] = test system: K. pneumoniae (ATCC 43816); assay: Checkerboard potentiation assay with novobiocin; format: cell-based
[2] = HEK293 cytotoxicity assay (Cell Titer Glo); format: cell-based; conditions: human, HEK293T Cytotoxicity (IC50, μg/mL)
[3] = test system: HEK293 (ATCC CRL 1573) cells; assay: HEK293 cytotoxicity assay (Cell Titer Glo); format: cell-based; conditions: human, 48 h
[4] = In vitro metabolic stability, dog; format: in vitro ADME; conditions: read-out: In vitro metabolic stability (t1/2, min), dog
in vitro = conditions: human
[5] = in vivo, 1 mg/kg
Protocol: Plasma samples were taken from 3 mice per time point (5, 15, 30 min; 1, 2, 4, 6 and 8 h post-dose). An aliquot of 2 μL sample was protein precipitated with 60 μL methanol, the mixture was vortex-mixed well and centrifuged at 13000 rpm for 10 min at 4° C. 2 μL supernatant was injected for LC-MS/MS analysis. The mean plasma concentration and the standard deviation from all 3 animals within each time point were calculated. PK parameters were calculated with a non-compartmental analysis. The mean plasma concentrations from all 3 mice at each time point were used in the calculations.

CYP2C9 = molecular target: T1, CYP2C9 (Homo sapiens, UniProt P11712); assay: P450 inhibition; format: in vitro ADME; conditions: read-out: P450 Inhibition CYP 2C9 (IC50)
T1 construct: Cyprotex Ltd. (contract laboratory that ran the assay)
T1 sequence (P11712 whole entry): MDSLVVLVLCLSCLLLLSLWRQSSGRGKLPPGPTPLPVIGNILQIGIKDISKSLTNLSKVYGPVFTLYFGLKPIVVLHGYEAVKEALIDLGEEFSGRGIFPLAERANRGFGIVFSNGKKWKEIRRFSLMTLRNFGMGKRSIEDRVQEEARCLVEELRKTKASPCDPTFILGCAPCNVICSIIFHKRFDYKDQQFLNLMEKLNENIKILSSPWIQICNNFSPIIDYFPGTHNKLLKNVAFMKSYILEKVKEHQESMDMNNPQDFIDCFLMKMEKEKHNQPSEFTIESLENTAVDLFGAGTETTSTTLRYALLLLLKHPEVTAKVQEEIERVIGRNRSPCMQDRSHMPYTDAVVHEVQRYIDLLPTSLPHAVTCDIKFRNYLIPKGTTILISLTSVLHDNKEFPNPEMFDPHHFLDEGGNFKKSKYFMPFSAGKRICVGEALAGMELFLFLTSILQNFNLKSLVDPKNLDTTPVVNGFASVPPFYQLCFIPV
Protocol: (§1) P450 inhibition. An 8-point dose-response of P35 (0, 0.1, 0.25, 1, 2.5, 10, 25 μM) was tested against the following cytochrome P450 (CYP) isoforms CYP3A4, CYP2C9, CYP2D6, CYP1A2, and CYP2C19. Reduction in metabolite formation was quantified using LC-MS/MS (with the exception of ethoxyresorufin for CYP1A2) to calculate an IC50 value. This assay was performed by Cyprotex Ltd.

CYP2D6 = molecular target: T2, CYP2D6 (Homo sapiens, UniProt P10635); assay: P450 inhibition; format: in vitro ADME; conditions: read-out: P450 Inhibition CYP 2D6 (IC50)
T2 construct: Cyprotex Ltd. (contract laboratory that ran the assay)
T2 sequence (P10635 whole entry): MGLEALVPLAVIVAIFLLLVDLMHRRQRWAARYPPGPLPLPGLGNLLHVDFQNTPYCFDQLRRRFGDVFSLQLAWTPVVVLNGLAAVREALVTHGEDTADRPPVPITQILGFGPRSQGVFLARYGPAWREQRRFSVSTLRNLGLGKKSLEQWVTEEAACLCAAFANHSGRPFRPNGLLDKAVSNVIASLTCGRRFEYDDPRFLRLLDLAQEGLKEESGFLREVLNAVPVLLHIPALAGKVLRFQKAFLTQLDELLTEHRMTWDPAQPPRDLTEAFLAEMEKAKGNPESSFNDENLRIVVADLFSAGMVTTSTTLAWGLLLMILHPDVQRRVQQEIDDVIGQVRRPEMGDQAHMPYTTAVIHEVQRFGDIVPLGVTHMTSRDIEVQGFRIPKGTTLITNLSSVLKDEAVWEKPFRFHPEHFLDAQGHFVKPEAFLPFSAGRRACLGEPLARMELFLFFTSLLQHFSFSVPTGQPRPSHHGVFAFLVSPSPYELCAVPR
Protocol: as §1

CYP3A4 = molecular target: T3, CYP3A4 (Homo sapiens, UniProt P08684); assay: P450 inhibition; format: in vitro ADME; conditions: read-out: P450 Inhibition CYP 3A4 (IC50)
T3 construct: Cyprotex Ltd. (contract laboratory that ran the assay)
T3 sequence (P08684 whole entry): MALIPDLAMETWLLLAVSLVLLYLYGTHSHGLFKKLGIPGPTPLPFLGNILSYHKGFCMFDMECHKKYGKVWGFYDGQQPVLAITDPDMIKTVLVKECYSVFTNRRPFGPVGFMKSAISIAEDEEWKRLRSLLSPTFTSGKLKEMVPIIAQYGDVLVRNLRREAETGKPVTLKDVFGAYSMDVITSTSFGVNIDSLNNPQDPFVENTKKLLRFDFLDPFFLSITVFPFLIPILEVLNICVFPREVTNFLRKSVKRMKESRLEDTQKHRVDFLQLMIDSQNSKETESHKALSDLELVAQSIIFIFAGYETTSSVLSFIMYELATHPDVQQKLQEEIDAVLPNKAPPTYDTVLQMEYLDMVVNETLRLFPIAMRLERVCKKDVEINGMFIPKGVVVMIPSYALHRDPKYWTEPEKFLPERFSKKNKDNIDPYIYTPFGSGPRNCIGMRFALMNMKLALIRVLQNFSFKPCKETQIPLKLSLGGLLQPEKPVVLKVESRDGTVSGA
Protocol: as §1

CYP2C19 = molecular target: T4, CYP2C19 (Homo sapiens, UniProt P33261); assay: P450 inhibition; format: in vitro ADME; conditions: read-out: P450 Inhibition CYP 2C19 (IC50)
T4 construct: Cyprotex Ltd. (contract laboratory that ran the assay)
T4 sequence (P33261 whole entry): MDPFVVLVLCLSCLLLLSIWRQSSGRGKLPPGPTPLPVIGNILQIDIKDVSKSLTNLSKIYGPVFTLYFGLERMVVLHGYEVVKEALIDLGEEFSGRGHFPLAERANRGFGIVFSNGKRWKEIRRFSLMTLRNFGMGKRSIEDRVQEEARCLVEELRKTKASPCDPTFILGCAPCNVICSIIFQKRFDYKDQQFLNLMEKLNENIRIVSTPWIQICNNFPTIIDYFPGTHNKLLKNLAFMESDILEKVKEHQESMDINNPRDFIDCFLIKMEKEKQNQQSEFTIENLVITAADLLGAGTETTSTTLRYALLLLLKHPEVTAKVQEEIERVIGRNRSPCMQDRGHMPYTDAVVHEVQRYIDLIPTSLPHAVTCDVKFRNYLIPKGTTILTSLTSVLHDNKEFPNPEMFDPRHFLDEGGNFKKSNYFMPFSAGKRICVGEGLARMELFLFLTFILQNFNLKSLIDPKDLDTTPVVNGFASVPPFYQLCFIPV
Protocol: as §1

CYP1A2 = molecular target: T5, CYP1A2 (Homo sapiens, UniProt P05177); assay: P450 inhibition; format: in vitro ADME; conditions: read-out: P450 Inhibition CYP 1A2 (IC50)
T5 construct: Cyprotex Ltd. (contract laboratory that ran the assay)
T5 sequence (P05177 1-516): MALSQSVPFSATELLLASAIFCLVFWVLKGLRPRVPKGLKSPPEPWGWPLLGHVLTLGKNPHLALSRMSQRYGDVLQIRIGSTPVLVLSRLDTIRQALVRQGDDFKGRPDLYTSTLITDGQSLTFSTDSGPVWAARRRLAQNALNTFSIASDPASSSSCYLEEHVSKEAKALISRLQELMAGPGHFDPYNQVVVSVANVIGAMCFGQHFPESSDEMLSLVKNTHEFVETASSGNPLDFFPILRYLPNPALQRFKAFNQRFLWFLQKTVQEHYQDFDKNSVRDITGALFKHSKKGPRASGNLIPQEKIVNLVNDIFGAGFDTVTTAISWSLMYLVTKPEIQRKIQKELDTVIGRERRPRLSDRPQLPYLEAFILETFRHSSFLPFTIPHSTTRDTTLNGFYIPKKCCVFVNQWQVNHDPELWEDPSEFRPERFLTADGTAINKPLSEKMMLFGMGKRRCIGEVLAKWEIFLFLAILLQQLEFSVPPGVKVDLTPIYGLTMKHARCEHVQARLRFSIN
Protocol: as §1

[6] = In vitro metabolic stability, rat; format: in vitro ADME; conditions: read-out: In vitro metabolic stability (t1/2, min), rat
[7] = Plasma protein binding (equilibrium dialysis); format: in vitro ADME
Protocol: Plasma protein binding. Protein binding of P35 in mouse/rat/dog/human plasma was determined using an equilibrium dialysis method. The fraction of compound unbound to proteins was calculated with LC-MS/MS. This assay was performed in duplicate by Cyprotex Ltd.

N=C(N)c1ccc(OCCN(CCOc2ccc(C(=N)N)cc2)c2ccccc2)cc1 [Analog P35]
FICI PA (P. aeruginosa (PA01)): 0.3125
FICI KP [1]: 0.12
IC50 at 48 h [2]: 235 µg/mL
HEK293T Cytotoxicity (IC50, μg/mL) [3]: 235.4 µg/mL
half-life [4]: 137 min
AC50 at 72 h (in vitro; HepG2 viability / cell cycle arrest AC50): 14.5 µM
AC50 at 72 h (in vitro; Nuclear Size AC50 (μM)): 94.5 µM
AC50 at 72 h (in vitro; Phospholipidosis AC50 (μM)): 43.1 µM
AUCExtra (%) ([5]; female, C57BL/6, mouse, iv): 6.74%
AUMCExtra (%) ([5]; female, C57BL/6, mouse, iv): 37.7%
Tlast ([5]; female, C57BL/6, mouse, iv): 8.00 h
Adverse effects after single intravenous dose ([5]; mouse): no adverse effects
IC50 (CYP2C9): > 50 µM
IC50 (CYP2D6): 14.8 µM
IC50 (CYP3A4): > 50 µM
IC50 (CYP2C19): > 50 µM
IC50 (CYP1A2): > 50 µM
half-life [6]: 110 min
fraction unbound ([7]; dog plasma): 0.126
fraction unbound ([7]; human plasma): 0.13
fraction unbound ([7]; mouse plasma): 0.169
fraction unbound ([7]; rat plasma): 0.077
